Experimental data reported in patent US20230181564A1, “Potent Tetrahydroquinolone Eliminates Apicomplexan Parasites” (The University of Chicago, priority 2020, published 2023).

Assays:
[1] = tested on: T. gondii mitochondrial membrane potential (cytochrome bc); experiment: Mitochondrial membrane potential by the safranine method (T. gondii, compared with HFF); format: cell-based, Toxoplasma gondii; conditions: permeabilized tachyzoites, safranin O
Description: T.gondii and HFF Mitochondrial Membrane Potential Measurements—the mitochondrial membrane potential was measured by the safranine method according to Vercesi et al, 1998). Freshly egressed T. gondii tachyzoites were filtered and washed twice with intracellular buffer (125 mM sucrose, 65 mM KCl, 10 mM HEPES-KOH buffer, pH 7.2, 1 mM MgCl2 and 2.5 mM potassium phosphate). After washing, the parasites were resuspended in the same buffer at 10^9/ml. An aliquot of 50 μL of this suspension was added to a cuvette containing Safranin 0, 2.5 μM and Succinate 1 mM in final volume of 2 mL of the intracellular buffer. The fluorescence was measured with a Hitachi 7000 spectrofluorometer with setting Ex. 495/Em. 586. Once the baseline fluorescence is testable, 30 μM digitonin was added to permeabilize the parasites. 85 seconds after permeabilization, the THQ derivatives, dissolved in DMSO, were added. 5 μM of FCCP (Carbonyl cyanide-4-(trifluoromethoxy) phenylhydrazone) was used as an uncoupler reference for calculations and its effect was considered 100%. Similar conditions for measuring the mitochondrial potential of mammalian cells were used with the following changes: the mammalian cells were re-suspended at 10^8/ml. 50 μl of mammalian cells was also used for each run in a cuvette with […]. The substrate used for mammalian cells was 5 mM glutamate and 5 mM malate. A higher concentration of digitonin (50 μM) was used to permeabilize the mammalian cells. The compounds were added at about 400 seconds after permeabilization. Each experiment was repeated at least three times in duplicates. Statistical analysis, unpaired student t test, was performed using GraphPad Prism 8.0 (GraphPad Software, Inc., San Diego, Calif.).
Mitochondrial membrane potential measurements were performed with permeabilized T.gondii tachyzoites in suspension using safranin O, which loads into polarized membranes. T. gondii tachyzoites were permeabilized with digitonin to allow the mitochondrial substrate succinate to cross the membrane and energize the mitochondrion. The fluorescence of safranin O, which loads into energized mitochondria was used to measure the membrane potential. The energized state of the mitochondrion is observed by a decrease in fluorescence (FIGS. 3A,C,E). Trifluoromethoxy carbonylcyanide phenylhydrazone (FCCP) was used to depolarize the membrane, which causes the fluorescence to go up as shown in FIG. 3A. JAG21 depolarized the membrane potential even at concentrations as low as 2 nM (FIG. 3C,D). JAG21 and Atovaquone had similar effects on the mitochondrial membrane potential (FIG. 3D). […] The effect of these THQ compounds against the T. gondii mitochondrial membrane potential was greater than the effect on the human foreskin fibroblast membrane potential (FIG. 3E,F). […]

[2] = tested on: T. gondii RH-YFP tachyzoites; experiment: Synergy studies with RH strain YFP tachyzoites; format: cell-based, Toxoplasma gondii
Description: Synergy studies with RH strain YFP Tachyzoites. Atovaquone and pyrimethamine were used to test whether they are synergistic with JAG21. Serial dilutions of the combination of JAG21 and either atovaquone or pyrimethamine were used in an in vitro challenge assay as described above. The EC50 of each compound and the combination of two compounds were determined. The effect of the combination of drugs was calculated with the following formula: C=[A]c/[A]a+[B]c/[B]a. If C is lower than 1, the two compounds tested have synergistic effect; if C is greater than 1, the two compounds tested have antagonist effect and if C is 1 they are additive.

With `Cc1[nH]c2c(c(=O)c1-c1ccc(Oc3ccc(OC(F)(F)F)cc3)cc1)CCCC2` [JAG021, 2-methyl-3-(4-(4-(trifluoromethoxy)phenoxy)phenyl)-5,6,7,8-tetrahydroquinolin-4-one] the “Concentration depolarizing the T. gondii mitochondrial membrane potential” value [1] was at most 2 nM, the “Combination with atovaquone against RH strain tachyzoites” value ([2]; isobologram) was “synergy” and the “Combination with pyrimethamine against RH strain tachyzoites” value ([2]; no synergy) was “no antagonism”.
